# Earlier results, collected in patent publication US20240294453A1, “Deuterated agonists and methods of use” (priority 2018, published 2024).
# Test system: subjects with schizophrenia
# [1] = 5 mg or 50 mg orally once daily, 24 weeks
compound,measurement,setting,value
O=C(N[C@@H]1C2CCN(CC2)[C@H]1Cc1cccnc1)c1cc2ccccc2o1 [TC-5619],"scores of CSB, UPSA-B, PANSS, CGI-I, CGI-S, or SGI-Cog vs placebo, P (none favored TC-5619)",[1],> 0.05
same,tolerability,[1],generally well tolerated
same,"SANS score vs placebo, 2-tailed P","5 mg, week 24",0.159
same,benefit in some outcome measures in tobacco users,"tobacco users, no concordance by dose, country, gender",Sporadic statistical benefit
same,"Scale for the Assessment of Negative Symptoms (SANS) composite score, benefit vs placebo","week 24, orally once daily, 5 mg or 50 mg, added to a new-generation antipsychotic",no statistical benefit
